Experimental data as given in patent publication US6696064B2 (priority 2000, dated 2004).

What was measured:
[1] = cited from earlier work
normal rat brain = settings: in vivo
healthy volunteers = settings: 300 mg single dose i.v. infusion, eleven healthy volunteers; cited from earlier work

CCN(CC)CCCC(C)Nc1ccnc2cc(Cl)ccc12 (stereo not drawn) [chloroquine]
time to maximum blood levels ([1]; after oral administration): 3 to 5 h
amounts deposited in brain, times smaller than in other body tissues ([1]; in vivo): 7 to 70 times
effect of chloroquine on histological brain damage in rats that received DT (normal rat brain): did not reduce the histological rain damage
effect of systemic chloroquine on brain damage caused by Tf-CRM107 (normal rat brain): completely blocked the brain damage
effects on the electrocardiogram, mean arterial blood pressure, or pulse rate (healthy volunteers): no effects were seen
side effects during i.v. infusion (healthy volunteers): only of subjective side effects
